Laboratory results as given in patent publication US8445636B2, “Antimicrobial and anticancer lipopeptides” (Yeda Research & Development Co. Ltd., priority 2003, dated 2013).
Values after ≈ are worked out from the molar mass of the structure shown. Like-named read-outs stand apart in the source and are kept apart here. Non-standard residues stand in square brackets, D forms with d. Residues, ends and D or L forms follow the SMILES beside them. *: point of attachment. Palmitoyl = CCCCCCCCCCCCCCCC(=O)*

Experiments:
Assay type in all cases: cell-based
E. aerogenes ATCC 35029 = conditions: ATCC 35029, pH 7.4
Method in brief: (§1)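 Broth microdilution: bacteria at 1×10^6 CFU/ml in LB medium (pH 7.4 unless stated; pH 5.5 also tested) mixed 1:1 with 2-fold serial lipopeptide dilutions in water, 18-20 h at 37° C. Growth read at 600 nm; MIC taken as lowest concentration giving 100% growth inhibition.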

E. coli ATCC 35218 = conditions: ATCC 35218, pH 7.4
Method in brief: as §1

[1] = system: Pseudomonas aeruginosa ATCC 27853
Method in brief: as §1

[2] = system: Staphylococcus aureus ATCC 6538P
Method in brief: as §1

[3] = system: Candida albicans ATCC 10231; test: microbe, parasite or virus in culture; conditions: ATCC 10231, pH 7.4
Method in brief: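 Broth microdilution in RPMI 1640/0.165 M MOPS, 1×10^4 CFU/ml inoculum, 2-fold serial lipopeptide dilutions in water, pH 7.4 unless stated (pH 5.5 alternative). Incubated 24–48 h at 35 °C with agitation; growth read at A620. MIC = lowest concentration giving 100% growth inhibition.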

[4] = system: Cryptococcus neoformans ATCC MYA-422; test: microbe, parasite or virus in culture; conditions: ATCC MYA-422, pH 7.4
[5] = system: Aspergillus fumigatus ATCC 26430; test: microbe, parasite or virus in culture; conditions: ATCC 26430, pH 7.4
[6] = Cytotoxicity, XTT viability, non-cancer cells; conditions: mouse, non-cancer cell line, 24 h incubation, read-out: LC50, 3T3
Method: Prostate cancer cell lines (CL1 and 22RV1; ATCC, USA) were grown in RPMI-1640 supplemented with 10% FCS (Biological Industries, Beit Haemek, Israel). N1H-3T3 mouse fibroblast cell line (ATCC, USA) was grown in DMEM supplemented with 10% bovine serum. To test cytotoxicity against the cancer cells, aliquots of medium containing 1×10^4 cells were distributed into a 96-well plate (Falcon). After one day, the media were replaced with 90 μl of fresh media and 10 μl of a solution containing different concentrations of the peptides. The plate was then incubated for 24 h before adding to each well 50 μl of XTT reaction solution (Biological Industries, Beit Haemek, Israel); viability was determined as previously described (Papo et al., (2003) J. Biol. Chem. 278:21018-23). The LC50 (concentration at which 50% of the cells die) for each peptide was obtained from the dose-dependent cell viability curves.

E. coli D21 = system: E. coli D21
M. laleus = conditions: Table 3, short lipopeptides; pH 7.4
Method in brief: as §1

[7] = system: Acinetobacter baumannii ATCC 19606
Method in brief: as §1

[8] = system: Escherichia coli ATCC 25922
Method in brief: as §1

[9] = Table 3, short lipopeptides, pH 7.4

Molecule	Minimal Inhibitory Concentration, E. aerogenes ATCC 35029 (E. aerogenes ATCC 35029) [µM]	Minimal Inhibitory Concentration, E. coli ATCC 35218 (E. coli ATCC 35218) [µM]	Minimal Inhibitory Concentration, P. aeruginosa ATCC 27853 ([1]; ATCC 27853, pH 7.4) [µM]	Minimal Inhibitory Concentration, S. aureus ATCC 6538P ([2]; ATCC 6538, pH 7.4) [µM]	Minimal Inhibitory Concentration, C. albicans ATCC 10231 [3] [µM]	Minimal Inhibitory Concentration, C. neoformans ATCC MYA-422 [4] [µM]	Minimal Inhibitory Concentration, A. fumigatus ATCC 26430 [5] [µM]	CC50 at 24 h [6] [µM]	Minimal Inhibitory Concentration, M. laleus (M. laleus) [µM]	further results
CC(C)C[C@@H](N)C(=O)N[C@@H](CCCCN)C(=O)N[C@@H](CCCCN)C(=O)N[C@H](CC(C)C)C(=O)N[C@H](CC(C)C)C(=O)N[C@@H](CCCCN)C(=O)N[C@@H](CCCCN)C(=O)N[C@H](CC(C)C)C(=O)N[C@H](CC(C)C)C(=O)N[C@@H](CCCCN)C(=O)N[C@@H](CCCCN)C(=O)N[C@H](CC(C)C)C(N)=O [[D]-L6K6, LKKLLKKLLKKL, reference compound] (H-[dL]KK[dL][dL]KK[dL][dL]KK[dL]-NH2; N-terminus assumed)	>50	50	>50	>50	>50	>50	>50	> 100		
CCCCCCCCCCCCCCCC(=O)N[C@H](CC(C)C)C(=O)N[C@@H](CCCCN)C(=O)N[C@@H](CCCCN)C(=O)N[C@H](CC(C)C)C(=O)N[C@H](CC(C)C)C(=O)N[C@@H](CCCCN)C(=O)N[C@@H](CCCCN)C(=O)N[C@H](CC(C)C)C(=O)N[C@H](CC(C)C)C(=O)N[C@@H](CCCCN)C(=O)N[C@@H](CCCCN)C(=O)N[C@H](CC(C)C)C(N)=O [lipopeptide 24, (CH3-(CH2)14-CO-)-D-Leu-Lys-Lys-D-Leu-D-Leu-Lys-Lys-D-Leu-D-Leu-Lys-Lys-D-Leu-NH2] (Palmitoyl-[dL]KK[dL][dL]KK[dL][dL]KK[dL]-NH2)	>50	50	>50	50	1.56	0.78	1.56	50		
CCCCCCCCCCCCCCCC(=O)N[C@@H](CCCCN)C(=O)N[C@@H](CC(C)C)C(=O)N[C@H](CC(C)C)C(=O)N[C@@H](CCCCN)C(N)=O [PA-KLLK, Palmitoyl-Lys-Leu-D-Leu-Lys-NH2] (Palmitoyl-KL[dL]K-NH2)			100	3.12					3.12	Minimal Inhibitory Concentration, E. coli-D21 (E. coli D21; D21, pH 7.4): 100 µM; MIC ([3]; read-out: Minimal Inhibitory Concentration, Candida Albicans (ATCC 10231)): 6.25 µM (≈ 4.61 µg/mL); MIC ([4]; read-out: Minimal Inhibitory Concentration, Cyrptococcus neoformans (ATCC MYA-422)): 1.56 µM (≈ 1.15 µg/mL); MIC ([5]; read-out: Minimal Inhibitory Concentration, Aspergillus Fomigatus (ATCC 26430)): 3.125 µM (≈ 2.31 µg/mL)
Gentamycin [reference compound]									0.78	Minimal Inhibitory Concentration, E. coli-D21 (E. coli D21; [9]): 1.56 µM; Minimal inhibitory concentrations, E. Coli D21 (E. coli D21; Table 6, pH 7.4): 12.5 µM; Minimal inhibitory concentrations, E. Coli D21 (E. coli D21; Table 7, pH 5.5): 12.5 µM; Minimal Inhibitory Concentration, A. baumannii ATCC 19606 [7, 9]: 3.12 µM; Minimal inhibitory concentrations, A. baumannii ATCC 19606 ([7]; Table 6, pH 7.4): 12.5 µM; Minimal inhibitory concentrations, A. baumannii ATCC 19606 ([7]; Table 7, pH 5.5): 12.5 µM; Minimal inhibitory concentrations, E. Coli ATCC 25922 ([8]; Table 6, pH 7.4): 6.25 µM; Minimal inhibitory concentrations, E. Coli ATCC 25922 ([8]; Table 7, pH 5.5): 12.5 µM; Minimal Inhibitory Concentration, P. aeruginosa ATCC 27853 [1, 9]: 0.78 µM; Minimal inhibitory concentrations, P. Aeruginosa ATCC 27853 ([1]; Table 6, pH 7.4): 12.5 µM; Minimal inhibitory concentrations, P. Aeruginosa ATCC 27853 ([1]; Table 7, pH 5.5): 12.5 µM; Minimal Inhibitory Concentration, S. aureus ATCC 6538P [2, 9]: 6.25 µM; Minimal inhibitory concentrations, S. aureus II ATCC 6538P ([2]; Table 6, pH 7.4): 12.5 µM; Minimal inhibitory concentrations, S. aureus II ATCC 6538P ([2]; Table 7, pH 5.5): 25 µM
